One data set has as its system Hras102 rats. The experiment in a line: MNU-induced mammary carcinogenesis in 102-strain transgenic rats. Type of data set: in vivo, rat. The method, then:
(§1) MNU, at a dose of 50 mg/kg, was intravenously injected into Hras128 and wild type rats, at 50 days old, to perform histopathological examination of the incidence of mammary tumor and to screen the presence or absence of any point mutation of the transgene and endogenous c-Ha-ras gene.
(§2) Mammary tumor became palpable in the Hras128 strain rats, 5 weeks after MNU administration, and then multiple adenocarcinoma developed in all (100%) of the mammary glands of all the transgenic rats at week 8, but that in the wild type rats only 29.2% even at week 8 (see Table 1 and FIG. 2). In 102-strain rats, multiple adenocarcinoma was observed 16 weeks after MNU administration.

The test system of data set [1] is wild type rats (non Tg rats). In words: MNU-induced mammary carcinogenesis in wild type rats (102 line). The class given is in vivo, rat. Conditions: strain 102, 'MNU Treatment' cell '—' (probably wild rats), week 18, 13 rats. The method, then: as §1, §2
Data set [2] deals with human c-Ha-ras proto-oncogene (transgene). The experiment in a line: Mutation analysis (RFLP, PCR-SSCP) of the transgene in carcinogen-induced tumors. The conditions noted are these: MNU-induced mammary tumors, Hras128, 44 tumors examined. From the text: Single-stranded DNA confirmation polymorphism (SSCP) analysis is able to be performed according to the followings; T. Sekiya. Protein, Nucleic Acid, Enzyme, vol.
Possible mutations in exons 1 to 4 of the human Ha-ras proto-oncogene and exons 1 and 2 of the endogenous gene were examined by PCR-SSCP analysis.
RFLP analysis is able to perform according to the followings; Nagase, et al., Protein, Nucleic Acid, Enzyme, vol.

In data set [3] the test system is endogenous Ha-ras gene (rat). The experiment in a line: Mutation analysis (PCR-SSCP) of the endogenous Ha-ras gene in carcinogen-induced tumors. Conditions: MNU-induced mammary tumors, SSCP. From the text: Single-stranded DNA confirmation polymorphism (SSCP) analysis is able to be performed according to the followings; T. Sekiya. Protein, Nucleic Acid, Enzyme, vol. 41, No. 5, 539, 1996.
Possible mutations in exons 1 to 4 of the human Ha-ras proto-oncogene and exons 1 and 2 of the endogenous gene were examined by PCR-SSCP analysis. Using human or rat specific primers, only two bands appeared on the gals. With common primers (cHras21F and cHras21R) for Ha-ras exon 2 of both man and rats, four bands were detected. Human or rat specific bands were identified by signals from normal DNA of the transgenic and non-transgenic rats. DNA from T24 having a mutation in human Ha-ras of codon 12, GGC to GTC and that from pSK2 having a mutation in the codon 61, CAG to CTG, gave clearly mobility shifted bands in the assays (FIG. 4). However, a GGC to GAC mutation of the transgene enriched by PCR after RFLP analysis as described below, which was frequently observed in tumors induced by MNU in human Ha-ras proto-oncogene transgenic mice, could not be detected by SSCP -PCR analysis. In 44 tumors from Hras128 transgenic rats treated with MNU, mutations were not detected in exons 1 to 4 of the introduced human and endogenous c-Ha-ras genes under any of four SSCP conditions (at 4 or 20° C., with or without 5% glycerol) (Table 1). In contrast, a relatively high frequency (6 of 21 tumors of non-transgenic rats (28.6%) of GGA to GAA mutations in codon 12 of the endogenous Ha-ras gene was detected in mammary carcinomas of non-transgenic using PCR-SSCP analysis followed by direct sequencing (Table 1).

The next data set relates to Hras128 rats. In words: MNU-induced mammary carcinogenesis in Hras128 transgenic rats. Type of data set: in vivo, rat. The method, then: as §1, §2
Data set [4] has as its system wild type rats (non Tg rats). The experiment in a line: MNU-induced mammary carcinogenesis in wild type rats (128 line). Type of data set: in vivo, rat. Conditions: strain 128, 'MNU Treatment' cell '—' (wild type rats per text), week 8, 24 rats. How it is done:
as §1, §2

The mark [5] stands for this setting: strain 102, MNU performed, week 18 after injection, 23 rats.
Setting [6] is: strain 128, MNU performed, 50 mg/kg i.v., week 8 after injection, 22 rats.

As to `CN(N=O)C(N)=O` [MNU, N-methyl-N-nitrosourea], the “Multiple adenocarcinoma observed, time after MNU administration” value with Hras102 rats (102-strain rats, MNU 50 mg/kg i.v.) is given as 16 weeks. In the data set on Hras102 rats (setting [5]), the “No. of tumor-bearing rats” value is given as 20, the “No. of tumor-bearing rats (%)” value is “(87.0) %” and the No. of tumor/rat stood at 5.83 ± 5.31. In data set [1], the “No. of tumor-bearing rats” value stood at 10, the “No. of tumor-bearing rats (%)” value was “(76.9) %” and the No. of tumor/rat amounted to 3.00 ± 2.86. For the same molecule, in data set [2], the “Tumors with transgene exon 2 (codon 61) mutation, number” value is 0; the “Tumors with transgene exon 3 mutation, number” value came to 0; the “Tumors with transgene exon 4 mutation, number” value is listed as 0. Moreover, in data set [3] (Hras128, 44 tumors examined), the “Tumors with endogenous (rat) exon 1 mutation, number” value is reported as 0 and the “Tumors with endogenous (rat) exon 2 mutation, number” value worked out at 0. Further, the “Tumors with endogenous (rat) exon 2 mutation, number” value in data set [3] (Wild, 21 tumors examined) amounted to 0. The “Mammary tumor became palpable, time after MNU administration” value in the data set on Hras128 rats (Hras128 rats, MNU 50 mg/kg i.v. at 50 days old) stood at 5 weeks. Moreover, the “Sensitivity of Tg rats to MNU-induced mammary carcinogenesis” value with Hras128 rats (Tg rats vs wild type) is given as “very sensitive”. For the same molecule, in the data set with Hras128 rats (setting [6]), the “No. of tumor-bearing rats” value is 22 and the No. of tumor/rat is 14.0 ± 6.42. Also, in data set [4], the “No. of tumor-bearing rats” value is reported as 7 and the No. of tumor/rat came out at 0.46 ± 0.93.

The values are drawn from patent US6576811B1, “Transgenic rat with human normal type c-Ha-ras gene” (National Cancer Center Research Institute, priority 1998, dated 2003).
